# In patent US12679878B2, “CRF2 receptor agonists and their use in therapy” (SANOFI, priority 2020, dated 2026):
# Like-named read-outs stand apart in the source and are kept apart here. Starred links: 1 amine or outer side, 2 acyl side, 3 side chain; linkers in the order of their positions; H or OH if unused. Non-standard residues stand in square brackets, D forms with d. Residues, ends and D or L forms follow the SMILES beside them. Groups on a side chain read outwards from the residue. *: point of attachment. C18 diacid = O=C(O)CCCCCCCCCCCCCCCCC(=O)*; γGlu = O=C(O)[C@H](CCC(=O)[*:2])N[*:1]; AEEA = NCCOCCOCC(=O)O; Aib = CC(C)(N)C(=O)O
# Target: T1, human CRF2α receptor (Homo sapiens, UniProt Q13324)
# T1 construct: expressed in transfected cells; host or cells: TeloHEAC
# T1 sequence (Q13324 1-411): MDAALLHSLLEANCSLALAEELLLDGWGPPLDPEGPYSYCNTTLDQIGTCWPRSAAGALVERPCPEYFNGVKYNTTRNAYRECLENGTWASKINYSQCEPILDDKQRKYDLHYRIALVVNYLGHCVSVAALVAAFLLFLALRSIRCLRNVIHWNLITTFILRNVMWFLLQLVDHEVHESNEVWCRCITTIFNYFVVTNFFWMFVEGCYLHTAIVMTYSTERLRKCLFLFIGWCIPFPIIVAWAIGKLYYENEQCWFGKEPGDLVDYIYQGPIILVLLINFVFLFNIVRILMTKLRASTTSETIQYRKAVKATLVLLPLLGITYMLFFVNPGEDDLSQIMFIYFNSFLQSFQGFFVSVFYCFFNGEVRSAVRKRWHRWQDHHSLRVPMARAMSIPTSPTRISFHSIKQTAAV
# Test: cAMP agonism at human CRF2 α receptor in TeloHEAC cells (Example 7)
# Format: cell-based
# Conditions: cAMP HTRF, TeloHEAC cells stably expressing human CRF2 α
# Procedure, shortened: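 Cryopreserved cells are thawed, washed and resuspended in IBMX-containing (2 mM) HEPES-buffered HBSS with or without 0.1% HSA. Compound incubation runs 30 min at room temperature with 2000 cells per well, then cAMP is measured by time-resolved FRET. Potency is expressed as EC50, efficacy relative to urocortin 2 at 1000 nM.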
# [1] = 0% HSA, read-out: EC50 [nM], 0% HSA
# [2] = 0.1% HSA, read-out: EC50 [nM], 0.1% HSA
Structure (SMILES),EC50 [1] [nM],EC50 [2] [nM]
CC[C@H](C)[C@H](N)C(=O)N[C@H](C(=O)N[C@@H](CC(C)C)C(=O)N[C@@H](CO)C(=O)N[C@@H](CC(C)C)C(=O)N[C@@H](CC(=O)O)C(=O)N[C@H](C(=O)N1CCC[C@H]1C(=O)N[C@H](C(=O)N[C@@H](CCCCN)C(=O)N[C@@H](CC(C)C)C(=O)N[C@@H](CCCCNC(=O)COCCOCCNC(=O)COCCOCCNC(=O)CC[C@H](NC(=O)CCCCCCCCCCCCCCCCC(=O)O)C(=O)O)C(=O)N[C@@H](CCC(N)=O)C(=O)N[C@H](C(=O)N[C@@H](CC(C)C)C(=O)N[C@@H](CC(C)C)C(=O)N[C@@H](CCCCN)C(=O)N[C@@H](CCC(N)=O)C(=O)N[C@@H](CCC(=O)O)C(=O)N[C@@H](CCCNC(=N)N)C(=O)N[C@@H](CCC(N)=O)C(=O)N[C@@H](CCCCN)C(=O)NC(C)(C)C(=O)N[C@@H](CCC(N)=O)C(=O)N[C@@H](CCCNC(=N)N)C(=O)N[C@@H](CCC(=O)O)C(=O)N[C@@H](CCC(N)=O)C(=O)N[C@@H](C)C(=O)N[C@@H](CCC(=O)O)C(=O)N[C@H](C(=O)N[C@@H](CC(N)=O)C(=O)N[C@@H](CCCCN)C(=O)N[C@@H](CCC(N)=O)C(=O)N[C@H](C(=O)N[C@@H](CC(C)C)C(=O)N[C@@H](CCC(=O)O)C(=O)N[C@@H](CCCNC(=N)N)C(=O)N[C@H](C(N)=O)C(C)C)[C@@H](C)CC)[C@@H](C)O)[C@@H](C)CC)[C@@H](C)CC)C(C)C)C(C)C [compound 107] (H-IVLSLDVPIKLK([AEEA-AEEA-γGlu-C18 diacid])QILLKQERQK[Aib]QREQAETNKQILERV-NH2),0.81,16.1
CC[C@H](C)[C@H](N)C(=O)N[C@H](C(=O)N[C@@H](CC(C)C)C(=O)N[C@@H](CO)C(=O)N[C@@H](CC(C)C)C(=O)N[C@@H](CC(=O)O)C(=O)N[C@H](C(=O)N1CCC[C@H]1C(=O)N[C@H](C(=O)N[C@@H](CCCCN)C(=O)N[C@@H](CC(C)C)C(=O)N[C@@H](CCCCNC(=O)COCCOCCNC(=O)COCCOCCNC(=O)CC[C@H](NC(=O)CCCCCCCCCCCCCCCCC(=O)O)C(=O)O)C(=O)N[C@@H](CCC(N)=O)C(=O)N[C@H](C(=O)N[C@@H](CC(C)C)C(=O)N[C@@H](CC(C)C)C(=O)N[C@@H](CCCCN)C(=O)N[C@@H](CCC(N)=O)C(=O)N[C@@H](CCC(=O)O)C(=O)N[C@@H](CCCNC(=N)N)C(=O)N[C@@H](CCC(N)=O)C(=O)N[C@@H](CCCCN)C(=O)NC(C)(C)C(=O)N[C@@H](CCC(N)=O)C(=O)N[C@@H](CCCNC(=N)N)C(=O)N[C@@H](CCC(=O)O)C(=O)N[C@@H](CCC(N)=O)C(=O)N[C@@H](C)C(=O)N[C@@H](CCC(=O)O)C(=O)N[C@@H](CCCCN)C(=O)N[C@@H](CC(N)=O)C(=O)N[C@@H](CCCCN)C(=O)N[C@@H](CCC(N)=O)C(=O)N[C@H](C(=O)N[C@@H](CC(C)C)C(=O)N[C@@H](CCC(=O)O)C(=O)N[C@@H](CCCNC(=N)N)C(=O)N[C@H](C(N)=O)C(C)C)[C@@H](C)CC)[C@@H](C)CC)[C@@H](C)CC)C(C)C)C(C)C [compound 115] (H-IVLSLDVPIKLK([AEEA-AEEA-γGlu-C18 diacid])QILLKQERQK[Aib]QREQAEKNKQILERV-NH2; N-terminus assumed),2.77,
CC[C@H](C)[C@H](N)C(=O)N[C@H](C(=O)N[C@@H](CC(C)C)C(=O)N[C@@H](CO)C(=O)N[C@@H](CC(C)C)C(=O)N[C@@H](CC(=O)O)C(=O)N[C@H](C(=O)N1CCC[C@H]1C(=O)N[C@H](C(=O)N[C@@H](CCCCN)C(=O)N[C@@H](CC(C)C)C(=O)N[C@@H](CCCCNC(=O)COCCOCCNC(=O)COCCOCCNC(=O)CC[C@H](NC(=O)CCCCCCCCCCCCCCCCC(=O)O)C(=O)O)C(=O)N[C@@H](CCC(N)=O)C(=O)N[C@H](C(=O)N[C@@H](CC(C)C)C(=O)N[C@@H](CC(C)C)C(=O)N[C@@H](CCCCN)C(=O)N[C@@H](CCC(N)=O)C(=O)N[C@@H](CCC(=O)O)C(=O)N[C@@H](CCCNC(=N)N)C(=O)N[C@@H](CCC(N)=O)C(=O)N[C@@H](CCCCN)C(=O)N[C@@H](CCCCN)C(=O)N[C@@H](CCC(N)=O)C(=O)N[C@@H](CCCNC(=N)N)C(=O)N[C@@H](CCC(=O)O)C(=O)N[C@@H](CCC(N)=O)C(=O)N[C@@H](C)C(=O)N[C@@H](CCC(=O)O)C(=O)N[C@@H](CCCCN)C(=O)N[C@@H](CC(N)=O)C(=O)N[C@@H](CCCCN)C(=O)N[C@@H](CCC(N)=O)C(=O)N[C@H](C(=O)N[C@@H](CC(C)C)C(=O)N[C@@H](CCC(=O)O)C(=O)N[C@@H](CCC(N)=O)C(=O)N[C@H](C(N)=O)C(C)C)[C@@H](C)CC)[C@@H](C)CC)[C@@H](C)CC)C(C)C)C(C)C [compound 120] (H-IVLSLDVPIKLK([AEEA-AEEA-γGlu-C18 diacid])QILLKQERQKKQREQAEKNKQILEQV-NH2),1.27,61.1
CC[C@H](C)[C@H](N)C(=O)N[C@H](C(=O)N[C@@H](CC(C)C)C(=O)N[C@@H](CO)C(=O)N[C@@H](CC(C)C)C(=O)N[C@@H](CC(=O)O)C(=O)N[C@@H](C(=O)N1CCC[C@H]1C(=O)N[C@H](C(=O)N[C@@H](CCCCN)C(=O)N[C@@H](CC(C)C)C(=O)N[C@@H](CCCCNC(=O)COCCOCCNC(=O)COCCOCCNC(=O)CC[C@H](NC(=O)CCCCCCCCCCCCCCCCC(=O)O)C(=O)O)C(=O)N[C@@H](CCC(N)=O)C(=O)N[C@H](C(=O)N[C@@H](CC(C)C)C(=O)N[C@@H](CC(C)C)C(=O)N[C@@H](CCC(=O)O)C(=O)N[C@@H](CCC(N)=O)C(=O)N[C@@H](C)C(=O)N[C@@H](CCCCN)C(=O)N[C@@H](CCC(N)=O)C(=O)N[C@@H](CCCCN)C(=O)NC(C)(C)C(=O)N[C@@H](CCC(N)=O)C(=O)N[C@@H](CCCNC(=N)N)C(=O)N[C@@H](CCC(=O)O)C(=O)N[C@@H](CCC(N)=O)C(=O)N[C@@H](C)C(=O)N[C@@H](CCC(=O)O)C(=O)N[C@@H](CCCCN)C(=O)N[C@@H](CC(N)=O)C(=O)N[C@@H](CCCCN)C(=O)N[C@@H](CCCNC(=N)N)C(=O)N[C@H](C(=O)N[C@@H](CC(C)C)C(=O)N[C@@H](CCC(=O)O)C(=O)N[C@@H](CCCNC(=N)N)C(=O)N[C@H](C(N)=O)C(C)C)[C@@H](C)CC)[C@@H](C)CC)[C@@H](C)CC)C(C)C)C(C)C [compound 127] (H-IVLSLD[dV]PIKLK([AEEA-AEEA-γGlu-C18 diacid])QILLEQAKQK[Aib]QREQAEKNKRILERV-NH2; N-terminus assumed),0.16,5.14
CC[C@H](C)[C@H](N)C(=O)N[C@H](C(=O)N[C@@H](CC(C)C)C(=O)N[C@@H](CO)C(=O)N[C@@H](CC(C)C)C(=O)N[C@@H](CC(=O)O)C(=O)N[C@@H](C(=O)N1CCC[C@H]1C(=O)N[C@H](C(=O)N[C@@H](CCCCN)C(=O)N[C@@H](CC(C)C)C(=O)N[C@@H](CCCCNC(=O)COCCOCCNC(=O)COCCOCCNC(=O)CC[C@H](NC(=O)CCCCCCCCCCCCCCCCC(=O)O)C(=O)O)C(=O)N[C@@H](CCC(N)=O)C(=O)N[C@H](C(=O)N[C@@H](CC(C)C)C(=O)N[C@@H](CC(C)C)C(=O)N[C@@H](CCCCN)C(=O)N[C@@H](CCC(N)=O)C(=O)N[C@@H](C)C(=O)N[C@@H](CCCNC(=N)N)C(=O)N[C@@H](CCC(N)=O)C(=O)N[C@@H](CCCCN)C(=O)NC(C)(C)C(=O)N[C@@H](CCC(N)=O)C(=O)N[C@@H](CCCNC(=N)N)C(=O)N[C@@H](CCC(=O)O)C(=O)N[C@@H](CCC(N)=O)C(=O)N[C@@H](C)C(=O)N[C@@H](CCC(=O)O)C(=O)N[C@@H](CCCCN)C(=O)N[C@@H](CC(N)=O)C(=O)N[C@@H](CCCCN)C(=O)N[C@@H](CCCNC(=N)N)C(=O)N[C@H](C(=O)N[C@@H](CC(C)C)C(=O)N[C@@H](CCC(=O)O)C(=O)N[C@@H](CCCNC(=N)N)C(=O)N[C@H](C(N)=O)C(C)C)[C@@H](C)CC)[C@@H](C)CC)[C@@H](C)CC)C(C)C)C(C)C [compound 128] (H-IVLSLD[dV]PIKLK([AEEA-AEEA-γGlu-C18 diacid])QILLKQARQK[Aib]QREQAEKNKRILERV-NH2; N-terminus assumed),0.64,20.1
CC[C@H](C)[C@H](N)C(=O)N[C@H](C(=O)N[C@@H](CC(C)C)C(=O)N[C@@H](CO)C(=O)N[C@@H](CC(C)C)C(=O)N[C@@H](CC(=O)O)C(=O)N[C@@H](C(=O)N1CCC[C@H]1C(=O)N[C@H](C(=O)N[C@@H](CCCCN)C(=O)N[C@@H](CC(C)C)C(=O)N[C@@H](CCCCNC(=O)COCCOCCNC(=O)COCCOCCNC(=O)CC[C@H](NC(=O)CCCCCCCCCCCCCCCCC(=O)O)C(=O)O)C(=O)N[C@@H](CCC(N)=O)C(=O)N[C@H](C(=O)N[C@@H](CC(C)C)C(=O)N[C@@H](CC(C)C)C(=O)N[C@@H](CCC(=O)O)C(=O)N[C@@H](CCC(N)=O)C(=O)N[C@@H](CCC(=O)O)C(=O)N[C@@H](CCCNC(=N)N)C(=O)N[C@@H](CCC(N)=O)C(=O)N[C@@H](CCCCN)C(=O)NC(C)(C)C(=O)N[C@@H](CCC(N)=O)C(=O)N[C@@H](CCCNC(=N)N)C(=O)N[C@@H](CCC(=O)O)C(=O)N[C@@H](CCC(N)=O)C(=O)N[C@@H](C)C(=O)N[C@@H](CCC(=O)O)C(=O)N[C@@H](CCCCN)C(=O)N[C@@H](CC(N)=O)C(=O)N[C@@H](CCCCN)C(=O)N[C@@H](CCC(N)=O)C(=O)N[C@H](C(=O)N[C@@H](CC(C)C)C(=O)N[C@@H](C)C(=O)N[C@@H](CCC(N)=O)C(=O)N[C@H](C(N)=O)C(C)C)[C@@H](C)CC)[C@@H](C)CC)[C@@H](C)CC)C(C)C)C(C)C [compound 129] (H-IVLSLD[dV]PIKLK([AEEA-AEEA-γGlu-C18 diacid])QILLEQERQK[Aib]QREQAEKNKQILAQV-NH2),0.15,3.02
